# Source: patent US7807703B2, “Substituted aryl ketones” (Bayer CropScience AG, priority 2002, dated 2010)
# Assay: log P determination by reversed-phase HPLC (EEC Directive 79/831 Annex V.A8; acidic or neutral mobile phase)
# Type: physicochemical
# Conditions: for log P (acidic): acetonitrile (marked a) or acidic)
# Description: The log P values given in the table were determined in accordance with EEC Directive 79/831 Annex V.A8 by HPLC (High Performance Liquid Chromatography) using a reversed-phase column (C 18). Temperature: 43° C.
# (a) Mobile phases for the determination in the acidic range: 0.1% aqueous phosphoric acid, acetonitrile; linear gradient from 10% acetonitrile to 90% acetonitrile—the corresponding measurement results are marked a) in Table 1.
# (b) Mobile phases for the determination in the neutral range: 0.01 molar aqueous phosphate buffer solution, acetonitrile; linear gradient from 10% acetonitrile to 90% acetonitrile—the corresponding measurement results are marked b) in Table 1.
# [1] = HPLC, reversed-phase C 18, 43° C., acidic range: 0.1% aqueous phosphoric acid
# [2] = HPLC, reversed-phase C18, 43° C.; acidic range a): 0.1% aqueous phosphoric acid, acetonitrile, linear gradient 10% to 90% acetonitrile
# [3] = HPLC, reversed-phase C 18, 43° C., mobile phase range not marked
# [4] = HPLC reversed-phase C18, 43° C., acidic range: 0.1% aqueous phosphoric acid, acetonitrile gradient (marked a))
smiles,measurement,setting,value
CCN(Cc1c(S(C)(=O)=O)ccc(C(=O)OC)c1Cl)OC [VIII-23],log P (acidic),[1],logPacidic = 2.74
COC(=O)c1ccc(Br)c(OCCNS(C)(=O)=O)c1Br [VIII-32],log P (acidic),[1],logPacidic = 2.13
COC(=O)c1ccc(S(C)(=O)=O)c(CN(CC(=O)N(C)C)OC)c1Cl [VIII-53],log P (acidic),[1],logPacidic = 1.74
CCn1ncc(C(=O)c2ccc(S(C)(=O)=O)c(CN(OC)C(C)C)c2Cl)c1O [Example 370],logP,[2],logP = 2.52^a)
CS(=O)(=O)c1ccc(C(=O)C2C(=O)CCCC2=O)c(Cl)c1CN(CC1CCOC1)OC1CCCC1 (stereo not drawn) [Example 426],logP,[2],(I-2) logP = 3.53^a)
CCONCc1c(Cl)ccc(C(=O)OC)c1OC [VIII-13],log P,[3],logP = 2.27
CN(Cc1c(S(C)(=O)=O)ccc(C(=O)C2C(=O)CCC(C)(C)C2=O)c1Cl)OCC1CCOC1 (stereo not drawn) [Example 436],logP,[2],(I-2) logP = 3.49^a)
C=CCN(Cc1c(S(C)(=O)=O)ccc(C(=O)C2C(=O)CCCC2=O)c1Cl)S(C)(=O)=O [Example 460],logP,[2],logP = 2.17^a)
CONCc1c(S(C)(=O)=O)ccc(C(=O)OC)c1Cl [VIII-21],log P (acidic),[1],logPacidic = 1.69
CCOC(=O)c1ccc(Cl)c(OCCNS(=O)(=O)CC(F)(F)F)c1Cl [VIII-17],log P,[3],logP = 3.08
CCS(=O)(=O)NCCOc1c(Cl)ccc(C(=O)C2C(=O)CCCC2=O)c1C [Example 359],logP,[2],logP = 2.33^a)
COC(=O)c1ccc(Cl)c(OCCNS(C)(=O)=O)c1C [VIII-26],log P (acidic),[1],logPacidic = 2.14
CCn1ncc(C(=O)c2ccc(S(C)(=O)=O)c(CN(CC3CCOC3)OC)c2Cl)c1O (stereo not drawn) [Example 423],logP,[2],(I-2) logP = 1.97^a)
CCN(Cc1c(Cl)ccc(C(=O)C2C(=O)CCCC2=O)c1OC)S(C)(=O)=O [Example 464],logP,[2],logP = 2.47^a)
CCN(Cc1c(S(C)(=O)=O)ccc(C(=O)c2cnn(CC)c2O)c1Cl)OC(C)C [Example 404],logP,[2],logP = 2.79^a)
COC(=O)c1ccc(S(C)(=O)=O)c(CN(OC)C(C)C)c1Cl [VIII-25],log P (acidic),[1],logPacidic = 3.13
CCON(Cc1c(S(C)(=O)=O)ccc(C(=O)C2C(=O)CCC(C)(C)C2=O)c1Cl)CC1CCOC1 (stereo not drawn) [Example 446],logP,[2],(I-2) logP = 3.60^a)
CCn1ncc(C(=O)c2ccc(S(C)(=O)=O)c(CNOCc3ccccc3)c2Cl)c1O [Example 349],"logP (HPLC, mobile phase not marked)",[3],2.31
CCOC(=O)c1ccc(Cl)c(OCCNS(=O)(=O)C(C)C)c1Cl [VIII-20],log P,[3],logP = 2.86
COC(=O)c1ccc(S(C)(=O)=O)c(CN(CC2CC2)OC)c1Cl [VIII-34],log P (acidic),[1],logPacidic = 3.18
CN(Cc1c(S(C)(=O)=O)ccc(C(=O)C2C(=O)CCC(C)(C)C2=O)c1Cl)S(C)(=O)=O (stereo not drawn) [Example 455],logP,[2],(I-2) logP = 2.43^a)
C=CCN(Cc1c(S(C)(=O)=O)ccc(C(=O)OC)c1Cl)OC [VIII-35],log P (acidic),[1],logPacidic = 2.87
COc1c(C(=O)c2cnn(C)c2O)ccc(Cl)c1CN(C)S(C)(=O)=O [Example 471],logP,[2],logP = 1.55^a)
C=CCN(Cc1c(S(C)(=O)=O)ccc(C(=O)c2cnn(CC)c2O)c1Cl)S(C)(=O)=O [Example 461],logP,[2],logP = 1.63^a)
COC(=O)c1ccc(S(C)(=O)=O)c(CN(Cc2ccccc2)OC)c1Cl [VIII-24],log P (acidic),[1],logPacidic = 3.42
CCn1ncc(C(=O)c2ccc(S(C)(=O)=O)c(CNOCc3ccccc3)c2Cl)c1O [Example 200],logP,"HPLC reversed-phase C18, 43° C., acidic range: 0.1% aqueous phosphoric acid, acetonitrile (marked a))",(I-2) logP = 2.31^a)
CCOC(=O)c1ccc(Cl)c(OCCNS(C)(=O)=O)c1Cl [VIII-14],log P,[3],logP = 2.24
CCONCc1c(Cl)ccc(C(=O)C2C(=O)CCC(C)(C)C2=O)c1Cl (stereo not drawn) [Example 449],logP,[2],(I-2) logP = 3.64^a)
CCn1ncc(C(=O)c2ccc(Br)c(OCCNS(=O)(=O)CC)c2C)c1O [Example 362],logP,[2],logP = 2.09^a)
COC(=O)c1ccc(S(C)(=O)=O)c(CN(C)OCC2CCCO2)c1Cl (stereo not drawn) [VIII-64],log P (acidic),[1],logPacidic = 2.51
CCn1ncc(C(=O)c2ccc(Cl)c(CN(C)S(C)(=O)=O)c2OC)c1O [Example 470],logP,[2],logP = 1.86^a)
CON(Cc1c(S(C)(=O)=O)ccc(C(=O)c2cnn(C)c2O)c1Cl)C(C)C [Example 345],"logP (HPLC, mobile phase not marked)",[3],2.16
CCCS(=O)(=O)NCCOc1c(Cl)ccc(C(=O)OCC)c1Cl [VIII-19],log P,[3],logP = 2.92
CCOC(=O)c1ccc(Cl)c(OCCNS(=O)(=O)CC)c1Cl [VIII-15],log P,[3],logP = 2.61
CON(Cc1ccoc1)Cc1c(S(C)(=O)=O)ccc(C(=O)C2C(=O)CCCC2=O)c1Cl [Example 428],logP,[2],(I-2) logP = 3.10^a)
CCS(=O)(=O)NCCOc1c(Br)ccc(C(=O)C2C(=O)CCCC2=O)c1C [Example 364],logP,[2],logP = 2.41^a)
CCn1ncc(C(=O)c2ccc(Cl)c(OCCNS(=O)(=O)C(C)C)c2Cl)c1O [Example 24],logP,[4],logP = 2.07^a)
CCn1ncc(C(=O)c2ccc(Cl)c(OCCNS(=O)(=O)CC)c2C)c1O [Example 358],logP,[2],logP = 2.03^a)
COC(=O)c1ccc(Cl)c(CN(C)OC)c1Cl [VIII-8],log P,[3],logP = 3.08
CCn1ncc(C(=O)c2ccc(Br)c(OCCNS(C)(=O)=O)c2C)c1O [Example 365],logP,[2],logP = 1.89^a)
CON(Cc1c(S(C)(=O)=O)ccc(C(=O)C2C(=O)CCCC2=O)c1Cl)CC1CCOC1 (stereo not drawn) [Example 408],logP,[2],(I-2) logP = 2.50^a)
CN(Cc1c(S(C)(=O)=O)ccc(C(=O)C2C(=O)CCCC2=O)c1Cl)S(C)(=O)=O [Example 454],logP,[2],logP = 1.84^a)
CCON(CC)Cc1c(S(C)(=O)=O)ccc(C(=O)C2C(=O)CCCC2=O)c1Cl [Example 390],logP,[2],logP = 3.22^a)
CCn1ncc(C(=O)c2ccc(S(C)(=O)=O)c(CN(C)OC3CCCC3)c2Cl)c1O [Example 397],logP,[2],(I-2) logP = 2.87^a)
CONCc1c(Cl)ccc(C(=O)OC)c1Cl [VIII-6],log P,[3],logP = 2.26
CCN(Cc1c(S(C)(=O)=O)ccc(C(=O)C2C(=O)CCCC2=O)c1Cl)OC(C)C [Example 402],logP,[2],logP = 3.52^a)
CN(Cc1c(Cl)ccc(C(=O)c2cnn(C)c2O)c1Cl)S(C)(=O)=O [Example 457],logP,[2],logP = 1.44^a)
COC(=O)c1ccc(S(C)(=O)=O)c(CN(OC)C(=O)C2CC2)c1Cl [VIII-52],log P (acidic),[1],logPacidic = 2.02
CCn1ncc(C(=O)c2ccc(S(C)(=O)=O)c(OCCNS(C)(=O)=O)c2Cl)c1O [Example 13],logP,[4],logP = 1.23^a)
COC(=O)c1ccc(S(C)(=O)=O)c(CN(OC)C(=O)C(F)(F)F)c1Cl [VIII-50],log P (acidic),[1],logPacidic = 2.60
COC(=O)c1ccc(S(C)(=O)=O)c(CNOC2CCCC2)c1Cl [VIII-48],log P (acidic),[1],logPacidic = 2.93
CCn1ncc(C(=O)c2ccc(Cl)c(OCCNS(=O)(=O)CCl)c2Cl)c1O [Example 8],logP,[4],logP = 2.05^a)
"CON(C)Cc1c(Cl)ccc(C(=O)O)c1Cl [II-1, 2,4-dichloro-3-(N-methoxy-N-methylaminomethyl)benzoic acid]",chromatographic logP,"reversed-phase C18 HPLC column, HPLC, reversed-phase C 18, 43° C., mobile phase range not marked, read-out: log P",1.99
CS(=O)(=O)c1ccc(C(=O)C2C(=O)CCCC2=O)c(Cl)c1CNOCCOc1ccccc1 [Example 442],logP,[2],(I-2) logP = 3.07^a)
CCn1nc(C)c(C(=O)c2ccc(S(C)(=O)=O)c(CN(C)OC)c2Cl)c1O [Example 307],"logP (HPLC, mobile phase not marked)",[3],1.45
CN(Cc1c(S(C)(=O)=O)ccc(C(=O)C2C(=O)CCCC2=O)c1Cl)OCC1CC1 [Example 444],logP,[2],(I-2) logP = 3.14^a)
CON(CC(=O)N(C)C)Cc1c(S(C)(=O)=O)ccc(C(=O)C2C(=O)CCCC2=O)c1Cl [Example 396],logP,[2],(I-2) logP = 1.93^a)
COc1c(C(=O)C2C(=O)CCC(C)(C)C2=O)ccc(Cl)c1CN(C)S(C)(=O)=O (stereo not drawn) [Example 473],logP,[2],(I-2) logP = 2.92^a)
CCONCc1c(S(C)(=O)=O)ccc(C(=O)c2cnn(CC)c2O)c1Cl [Example 136],logP,[4],logP = 1.58^a)
COC(=O)c1ccc(S(C)(=O)=O)c(CN(CC2CCOC2)OC2CCCC2)c1Cl (stereo not drawn) [VIII-56],log P (acidic),[1],logPacidic = 3.30
CCn1ncc(C(=O)c2ccc(S(C)(=O)=O)c(CN(C)OC)c2Cl)c1O [Example 304],"logP (HPLC, mobile phase not marked)",[3],1.78
CCONCc1c(Cl)ccc(C(=O)C2C(=O)CCCC2=O)c1OC [Example 447],logP,[2],logP = 2.20^a)
CCON(Cc1c(S(C)(=O)=O)ccc(C(=O)c2cnn(CC)c2O)c1Cl)CC1CCOC1 (stereo not drawn) [Example 416],logP,[2],(I-2) logP = 2.11^a)
COC(=O)c1ccc(S(C)(=O)=O)c(CN(OC)C2CCOC2)c1Cl (stereo not drawn) [VIII-58],log P (acidic),[1],logPacidic = 2.17
COc1c(C(=O)C2C(=O)CC(C)CC2=O)ccc(Cl)c1CN(C)OC (stereo not drawn) [Example 482],logP,[2],(I-2) logP = 3.09^a)
CCN(Cc1c(Cl)ccc(C(=O)c2cnn(C)c2O)c1OC)OC [Example 486],logP,[2],logP = 2.44^a)
CON(Cc1c(S(C)(=O)=O)ccc(C(=O)C2C(=O)CCCC2=O)c1Cl)C(C)C [Example 343],"logP (HPLC, mobile phase not marked)",[3],(I-2) 3.26
COC(=O)c1ccc(S(C)(=O)=O)c(CN(OC)C(C)=O)c1Cl [VIII-39],log P (acidic),[1],logPacidic = 1.58
CCCS(=O)(=O)NCCOc1c(Cl)ccc(C(=O)c2cnn(CC)c2O)c1Cl [Example 167],logP,[4],logP = 2.15^a)
COC(=O)c1ccc(S(C)(=O)=O)c(CN(CC2CCOC2)OC)c1Cl (stereo not drawn) [VIII-54],log P (acidic),[1],logPacidic = 2.35
COC(=O)c1ccc(S(C)(=O)=O)c(CNOCCOc2ccccc2)c1Cl [VIII-62],log P (acidic),[1],logPacidic = 2.93
CCn1nc(C)c(C(=O)c2ccc(S(C)(=O)=O)c(CN(C)OC)c2Cl)c1O [Example 12],logP,[4],logP = 1.45^a)
